Data as given in patent US7101878B1 (Agouron Pharmaceuticals, Inc., priority 1998, dated 2006).

The compounds below were run against T1, mouse GnRH receptor (Mus musculus, UniProt Q01776) (assay: Radioligand binding, 125I-GnRH-A, 293 cells expressing mouse GnRH receptors). Details: 10 uM; read-out: % Inhib. @ 10 uM mGnRH.
T1 construct: expressed in transfected cells; host or cells: 293 cells
T1 sequence (Q01776 1-327): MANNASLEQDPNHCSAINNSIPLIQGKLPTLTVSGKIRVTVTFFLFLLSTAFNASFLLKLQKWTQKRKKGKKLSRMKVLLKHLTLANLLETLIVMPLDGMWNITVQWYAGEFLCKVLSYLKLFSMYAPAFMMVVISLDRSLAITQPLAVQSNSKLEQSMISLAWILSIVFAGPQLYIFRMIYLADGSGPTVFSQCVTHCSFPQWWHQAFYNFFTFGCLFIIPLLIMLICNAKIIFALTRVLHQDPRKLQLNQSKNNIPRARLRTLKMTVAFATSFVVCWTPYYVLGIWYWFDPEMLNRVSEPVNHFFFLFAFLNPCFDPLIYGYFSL
Summary of the method: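 Bound label captured on 0.1% polyethyleneimine-treated GF/C filters, washed three times with PBS, counted. IC50 derived; identical set-up for every species.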
Compound `Cc1cc2c(cc1Cc1ccc(C(=O)NCC(C)(C)CN(C)C)o1)C(C)(C)CCC2(C)C` [drawing 1507] has an inhibition at 10 µM of 98%.
Compound `Cc1cc2c(cc1Cc1ccc(C(=O)N3CCN(CC(=O)N(C)c4ccccc4)CC3)o1)C(C)(C)CCC2(C)C` has an inhibition at 10 µM of 103%.
In the case of `CC1(C)CCC(C)(C)c2cc(Cc3ccc(C(=O)NC4c5ccccc5-c5ccccc54)o3)ccc21`, the inhibition at 10 µM is reported as 53%.
`Cc1cc2c(cc1Cc1ccc(C(=O)N(CCCc3ccccc3)Cc3ccc(Oc4ccccc4)cc3)o1)C(C)(C)CCC2(C)C` showed an inhibition at 10 µM of 17%.
For `Cc1cc2c(cc1Cc1ccc(C(=O)N3CCC4(CC3)C(=O)NCN4c3ccccc3)o1)C(C)(C)CCC2(C)C` [drawing 1511], the inhibition at 10 µM was 72%.
For `Cc1cc2c(cc1Cc1ccc(C(=O)N3CCC(NC(=O)OC(C)(C)C)C3)o1)C(C)(C)CCC2(C)C` (stereo not drawn) [drawing 1544], the inhibition at 10 µM was 82%.
Compound `Cc1cc2c(cc1Cc1ccc(C(=O)N(C)[C@@H](C)Cc3ccccc3)o1)C(C)(C)CCC2(C)C` has an inhibition at 10 µM of 59%.
`Cc1cc2c(cc1Cc1ccc(C(=O)NC3(CO)CCCC3)o1)C(C)(C)CCC2(C)C` [drawing 1464] gave an inhibition at 10 µM of 98%.
For `Cc1cc2c(cc1Cc1ccc(C(=O)N(CCCN3CCN(C)CC3)Cc3ccc(F)cc3)o1)C(C)(C)CCC2(C)C` [drawing 1490], the inhibition at 10 µM was 103%.
Compound `Cc1cc2c(cc1Cc1ccc(C(=O)N(CCC#N)CCC#N)o1)C(C)(C)CCC2(C)C` [drawing 1536] has an inhibition at 10 µM of 77%.
`COc1ccccc1C1CCN(C(=O)c2ccc(Cc3cc4c(cc3C)C(C)(C)CCC4(C)C)o2)CC1` gave an inhibition at 10 µM of 63%.
`Cc1cc2c(cc1Cc1ccc(C(=O)N3CCCC(C(=O)NC(c4ccccc4)c4ccccc4)C3)o1)C(C)(C)CCC2(C)C` (stereo not drawn) was tested, and the inhibition at 10 µM was 9%.
In the case of `Cc1cc2c(cc1Cc1ccc(C(=O)NC(CO)C(C)C)o1)C(C)(C)CCC2(C)C` (stereo not drawn) [drawing 1478], the inhibition at 10 µM is reported as 87%.
`Cc1cc2c(cc1Cc1ccc(C(=O)N(Cc3cccc(Cl)c3)Cc3cccc(Cl)c3)o1)C(C)(C)CCC2(C)C` was tested, and the inhibition at 10 µM was 17%.
Compound `Cc1cc2c(cc1Cc1ccc(C(=O)N3CCN(C(C)C)CC3)o1)C(C)(C)CCC2(C)C` has an inhibition at 10 µM of 100%.
With `Cc1cc2c(cc1Cc1ccc(C(=O)N3CCCC4CCCCC43)o1)C(C)(C)CCC2(C)C` (stereo not drawn) the inhibition at 10 µM was 94%.
In the case of `Cc1cc2c(cc1Cc1ccc(C(=O)N3CCCC3C(O)(c3ccccc3)c3ccccc3)o1)C(C)(C)CCC2(C)C` (stereo not drawn), the inhibition at 10 µM is reported as 31%.
`CCCN(Cc1ccc([N+](=O)[O-])cc1)C(=O)c1ccc(Cc2cc3c(cc2C)C(C)(C)CCC3(C)C)o1` [drawing 1480] was tested, and the inhibition at 10 µM was 66%.
`Cc1cc2c(cc1Cc1ccc(C(=O)N(C)CCCC34c5ccccc5[C@@H]5CCC53c3ccccc34)o1)C(C)(C)CCC2(C)C` (stereo partly drawn) showed an inhibition at 10 µM of 14%.
In the case of `Cc1cc2c(cc1Cc1ccc(C(=O)N(C)CCC=C3c4ccccc4CCc4ccccc43)o1)C(C)(C)CCC2(C)C` [drawing 1472], the inhibition at 10 µM is reported as 58%.
Work on `Cc1cc2c(cc1Cc1ccc(C(=O)N3CCC(CCCC4CCN(CCO)CC4)CC3)o1)C(C)(C)CCC2(C)C` [drawing 1427] yielded an inhibition at 10 µM of 104%.
For `Cc1cc2c(cc1Cc1ccc(C(=O)NCCCCCO)o1)C(C)(C)CCC2(C)C` [drawing 1437], the inhibition at 10 µM was 99%.
For `Cc1cc2c(cc1Cc1ccc(C(=O)NC[C@@H]3CCCC[C@H]3O)o1)C(C)(C)CCC2(C)C` [drawing 1466], the inhibition at 10 µM was 97%.
In the case of `Cc1cc2c(cc1Cc1ccc(C(=O)N(Cc3ccccc3Cl)CC(c3ccccc3)c3ccccc3)o1)C(C)(C)CCC2(C)C`, the inhibition at 10 µM is reported as 8%.
For `Cc1cc2c(cc1Cc1ccc(C(=O)N(Cc3cccnc3)Cc3ccco3)o1)C(C)(C)CCC2(C)C` [drawing 1535], the inhibition at 10 µM was 89%.
Compound `Cc1cc2c(cc1Cc1ccc(C(=O)NCC(O)c3ccccc3)o1)C(C)(C)CCC2(C)C` (stereo not drawn) [drawing 1470] has an inhibition at 10 µM of 101%.
In the case of `Cc1cc2c(cc1Cc1ccc(C(=O)N3CCC(O)(c4ccc(Br)cc4)CC3)o1)C(C)(C)CCC2(C)C` [drawing 1512], the inhibition at 10 µM is reported as 49%.
`Cc1cc2c(cc1Cc1ccc(C(=O)NCCN3CCN(c4nccc(NCC5CCCO5)n4)CC3)o1)C(C)(C)CCC2(C)C` (stereo not drawn) gave an inhibition at 10 µM of 96%.
For `CCC(O)CNC(=O)c1ccc(Cc2cc3c(cc2C)C(C)(C)CCC3(C)C)o1` (stereo not drawn) [drawing 1537], the inhibition at 10 µM was 99%.
With `Cc1cc2c(cc1Cc1ccc(C(=O)N(Cc3ccccc3)[C@@H](C)c3ccccc3)o1)C(C)(C)CCC2(C)C` [drawing 1542] the inhibition at 10 µM was 46%.
For `C#CCN(CCC)CCN1CCN(C(=O)c2ccc(Cc3cc4c(cc3C)C(C)(C)CCC4(C)C)o2)CC1`, the inhibition at 10 µM was 101%.
Work on `Cc1cc2c(cc1Cc1ccc(C(=O)N3CCC(N4CCCCC4)CC3)o1)C(C)(C)CCC2(C)C` yielded an inhibition at 10 µM of 92%.
Compound `CCN(CC)CCCN(CCCN(CC)CC)C(=O)c1ccc(Cc2cc3c(cc2C)C(C)(C)CCC3(C)C)o1` has an inhibition at 10 µM of 69%.
`Cc1cc2c(cc1Cc1ccc(C(=O)NCC3(O)CCCCC3)o1)C(C)(C)CCC2(C)C` [drawing 1445] was tested, and the inhibition at 10 µM was 65%.
`CCCCN(CCC#N)C(=O)c1ccc(Cc2cc3c(cc2C)C(C)(C)CCC3(C)C)o1` gave an inhibition at 10 µM of 87%.
Work on `CCOC(=O)CN1CCN(C(=O)c2ccc(Cc3cc4c(cc3C)C(C)(C)CCC4(C)C)o2)CC1` yielded an inhibition at 10 µM of 66%.
In the case of `Cc1cc2c(cc1Cc1ccc(C(=O)N(CCCN3CCN(C)CC3)Cc3cc(C)n(-c4cccc(C(F)(F)F)c4)c3C)o1)C(C)(C)CCC2(C)C` [drawing 1488], the inhibition at 10 µM is reported as 102%.
`Cc1cc2c(cc1Cc1ccc(C(=O)N3CCN(CCCO)CC3)o1)C(C)(C)CCC2(C)C` showed an inhibition at 10 µM of 66%.
Work on `CSCCNC(=O)c1ccc(Cc2cc3c(cc2C)C(C)(C)CCC3(C)C)o1` [drawing 1587] yielded an inhibition at 10 µM of 97%.
With `CCOC(CN(Cc1ccncc1)C(=O)c1ccc(Cc2cc3c(cc2C)C(C)(C)CCC3(C)C)o1)OCC` the inhibition at 10 µM was 31%.

Same assay, conditions: 1 h, substrate remaining; 10 uM compound; closer to zero = closer to 100% inhibition; read-out: S%R 10 uM mGnRHR
For `Cc1cc2c(cc1Cc1ccc(C(=O)N3CC(C)CC(C)C3)o1)C(C)(C)CCC2(C)C` (stereo not drawn) [Compound 579], the remaining activity at 10 µM was 10%.
In the case of `Cc1cc2c(cc1Cc1ccc(C(=O)N(CCc3ccccc3)Cc3ccoc3)o1)C(C)(C)CCC2(C)C` [Compound 667], the remaining activity at 10 µM is reported as 39%.
Compound `CCCC(CO)NC(=O)c1ccc(Cc2cc3c(cc2C)C(C)(C)CCC3(C)C)o1` (stereo not drawn) [Compound 673] has a remaining activity at 10 µM of 2%.
`Cc1cc2c(cc1Cc1ccc(C(=O)NCC3CCC(C(=O)O)CC3)o1)C(C)(C)CCC2(C)C` (stereo not drawn) [Compound 479] showed a remaining activity at 10 µM of -3%.
For `Cc1cc2c(cc1Cc1ccc(C(=O)N(Cc3ccco3)C3CC(=O)N(C)C3=O)o1)C(C)(C)CCC2(C)C` (stereo not drawn) [Compound 606], the remaining activity at 10 µM was 32%.
With `COC(=O)CCCCCNC(=O)c1ccc(Cc2cc3c(cc2C)C(C)(C)CCC3(C)C)o1` [Compound 493] the remaining activity at 10 µM was -6%.
With `Cc1cc2c(cc1Cc1ccc(C(=O)N(Cc3ccc(C(C)C)cc3)C3CCN(Cc4ccccc4)C3)o1)C(C)(C)CCC2(C)C` (stereo not drawn) [Compound 638] the remaining activity at 10 µM was 53%.
For `CCN(Cc1ccc(C)cc1)C(=O)c1ccc(Cc2cc3c(cc2C)C(C)(C)CCC3(C)C)o1` [Compound 644], the remaining activity at 10 µM was 22%.
With `Cc1cc2c(cc1Cc1ccc(C(=O)N(CCCN3CCN(C)CC3)Cc3cc(C)n(-c4cccc(C(F)(F)F)c4)c3C)o1)C(C)(C)CCC2(C)C` [Compound 567] the remaining activity at 10 µM was -1%.
With `Cc1cc2c(cc1Cc1ccc(C(=O)N(Cc3ccsc3)C3CCN(Cc4ccccc4)C3)o1)C(C)(C)CCC2(C)C` (stereo not drawn) [Compound 612] the remaining activity at 10 µM was 9%.
`COc1ccc(CCNC(=O)c2ccc(Cc3cc4c(cc3C)C(C)(C)CCC4(C)C)o2)cc1OC` [Compound 489] was tested, and the remaining activity at 10 µM was -1%.
In the case of `Cc1cc2c(cc1Cc1ccc(C(=O)N3CCCCCCC3)o1)C(C)(C)CCC2(C)C` [Compound 563], the remaining activity at 10 µM is reported as 13%.
`CCSCCNC(=O)c1ccc(Cc2cc3c(cc2C)C(C)(C)CCC3(C)C)o1` [Compound 655] was tested, and the remaining activity at 10 µM was 2%.
`COC(=O)C1CCCN1C(=O)c1ccc(Cc2cc3c(cc2C)C(C)(C)CCC3(C)C)o1` (stereo not drawn) [Compound 704] gave a remaining activity at 10 µM of 4%.
Compound `Cc1cc2c(cc1Cc1ccc(C(=O)NC3c4ccccc4-c4ccccc43)o1)C(C)(C)CCC2(C)C` [Compound 570] has a remaining activity at 10 µM of 48%.
Work on `CCN(CCO)C(=O)c1ccc(Cc2cc3c(cc2C)C(C)(C)CCC3(C)C)o1` [Compound 539] yielded a remaining activity at 10 µM of 19%.
`CSCCNC(=O)c1ccc(Cc2cc3c(cc2C)C(C)(C)CCC3(C)C)o1` [Compound 648] gave a remaining activity at 10 µM of 4%.
`Cc1cc2c(cc1Cc1ccc(C(=O)N(C)CCCN(C)C)o1)C(C)(C)CCC2(C)C` [Compound 608] showed a remaining activity at 10 µM of 8%.
`CC[C@H](C)C(CO)NC(=O)c1ccc(Cc2cc3c(cc2C)C(C)(C)CCC3(C)C)o1` (stereo partly drawn) [Compound 683] was tested, and the remaining activity at 10 µM was 23%.
`Cc1cc2c(cc1Cc1ccc(C(=O)N3CCCCC3C(=O)NC(c3ccccc3)c3ccccc3)o1)C(C)(C)CCC2(C)C` (stereo not drawn) [Compound 586] was tested, and the remaining activity at 10 µM was 57%.
`Cc1cc2c(cc1Cc1ccc(C(=O)N(C)CCC#N)o1)C(C)(C)CCC2(C)C` [Compound 636] was tested, and the remaining activity at 10 µM was 17%.
With `Cc1cc2c(cc1Cc1ccc(C(=O)NCc3ccccn3)o1)C(C)(C)CCC2(C)C` [Compound 501] the remaining activity at 10 µM was -3%.
With `Cc1cc2c(cc1Cc1ccc(C(=O)N(Cc3cccc4ccccc34)C3CCN(Cc4ccccc4)C3)o1)C(C)(C)CCC2(C)C` (stereo not drawn) [Compound 631] the remaining activity at 10 µM was 43%.
`COc1cccc(CN(Cc2cccc(Oc3cccc(C(F)(F)F)c3)c2)C(=O)c2ccc(Cc3cc4c(cc3C)C(C)(C)CCC4(C)C)o2)c1OC` [Compound 690] showed a remaining activity at 10 µM of 25%.
With `Cc1cc2c(cc1Cc1ccc(C(=O)NCc3nc4ccccc4[nH]3)o1)C(C)(C)CCC2(C)C` [Compound 500] the remaining activity at 10 µM was -4%.
Compound `Cc1cc2c(cc1Cc1ccc(C(=O)N(Cc3ccoc3)C3CCN(Cc4ccccc4)C3)o1)C(C)(C)CCC2(C)C` (stereo not drawn) [Compound 618] has a remaining activity at 10 µM of 9%.
